Measurements from patent US8937053B2, “Process for the preparation of prasugrel and several novel crystalline forms of prasugrel hydrochloride” (Sunshine Lake Pharma Co., Ltd., priority 2011, dated 2015).

Experiment: Solubility test (Chinese Pharmacopoeia 2010)
Format: physicochemical
Settings: 0.1M HCl, 25±2° C., 300 mg ground powder sample, shaken 30 seconds at 5 minute intervals, 30 minutes total, dissolution judged by eye; for Solubility: hydrochloride
Protocol: According to the solubility test described in “Chinese Pharmacopoeia 2010”, Topic and Requirement 15, the grinded sample in powder form was added to a certain amount of solvent at 25±2° C. […] The solid was deemed as dissolved when no solid was detected in the mixture by human eyes.

| solubility at 30 min (25 °C, simulated gastric fluid, thermodynamic from solid) | Solubility | Structure (SMILES) |
| --- | --- | --- |
| 40 mg/mL |  | CC(=O)Oc1cc2c(s1)CCN(C(C(=O)C1CC1)c1ccccc1F)C2.Cl (stereo not shown) [Form B2, prasugrel hydrochloride] |
|  | 50 mg/mL | CC(=O)Oc1cc2c(s1)CCN(C(C(=O)C1CC1)c1ccccc1F)C2.Cl (stereo not shown) [Form H1, prasugrel hydrochloride] |
|  | 50 mg/mL | CC(=O)Oc1cc2c(s1)CCN(C(C(=O)C1CC1)c1ccccc1F)C2.Cl (stereo not shown) [Form H3, prasugrel hydrochloride] |
|  | 50 mg/mL | CC(=O)Oc1cc2c(s1)CCN(C(C(=O)C1CC1)c1ccccc1F)C2.Cl (stereo not shown) [Form H2, prasugrel hydrochloride] |
